Consider 5 compounds from patent publication US7862811B2, “Protease inhibition for prevention or treatment of heart failure” (Regents of the University of Colorado, priority 2004, dated 2011).

The test system of one data set is MMP. The note with it: acute pig model, orally-active; cited from earlier work.
For data set [1], the system named is RV contractile dysfunction from acute RV pressure overload.
Method: Pigs were subjected to RV pressure overload by constriction of the main pulmonary artery for 90 min (mean PASP 63 mmHg), followed by 30 min recovery.
Animal care: Domestic farm pigs (25-40 kg) are sedated with IM injection of ketamine HCl, followed by IV administration of fentanyl or propofol and α-chloralose. In most exemplary protocols, experiments are performed under deep general anesthesia using α-chloralose. Following anesthetic induction, pigs are intubated via tracheotomy and ventilated using a pressure-cycled ventilator. Mechanical respiration is adjusted to maintain physiologic values of arterial pH, pO2, and pCO2. All experiments are non-survival: at the conclusion of each experiment, supplemental α-chloralose is given prior to inducing ventricular fibrillation (KCl 10%, 25 cc infused IV).
Instrumentation and Hemodynamic Measurements. The experimental preparation is similar to that previously described (51). After exposure via median sternotomy, the heart is instrumented as illustrated in Appendix A.
For calpain inhibitor experiments, the proximal portion of the right coronary artery is dissected free, fitted with a transit-time ultrasonic flow probe, and cannulated with a 26 g polyethylene catheter as described (52). Digitized hemodynamic data are analyzed as previously described (53) and in Appendix A.
The purpose of this experiment is to determine whether calpain activation is mechanistically related to the development of RV dysfunction from pressure overload. Open-chest pigs will be instrumented as described. A 26 g polyethylene catheter will be inserted into the right coronary artery. […] The infusion will be begun 30 min prior to beginning pulmonary artery constriction and continued throughout the experiment. Biopsies of the RV myocardium will be obtained, followed by baseline hemodynamic measurements. Pigs will then be subjected to RV pressure overload by constriction of the main pulmonary artery for 90 min. Hemodynamic measurements will be repeated 30 min after relief of pressure overload, and a second set of RV biopsies obtained. […]
In data set [2] the test system is m-calpain from porcine kidney. To be noted: cited from earlier work.
In a further data set the test system is Molt-4 cells. To be noted: cited from earlier work.
A further data set relates to cultured rat lenses. The note with it: calcium ionophore A23187; cited from earlier work.
Data set [3] concerns isolated rat hearts. To be noted: global ischemia; cited from earlier work.
Data set [4] deals with isolated rat hearts. The note with it: elevated LV end-diastolic pressure without ischemia; cited from earlier work.

Square brackets hold non-standard residues; d marks the D form. Peptide text beside a SMILES is read from it. * marks the point of attachment. Nle = CCCC[C@H](N)C(=O)O; Cbz = O=C(OCc1ccccc1)*

Regarding `NC(=O)C1=C(O)C[C@@H]2C[C@@H]3Cc4cccc(O)c4C(=O)C3=C(O)[C@]2(O)C1=O` [COL-3], the MMP-mediated lung injury result in the data set on MMP is “prevent”.
Consider `CC(C)[C@H](NC(=O)OCc1ccccc1)C(=O)N[C@H](C=O)Cc1ccccc1` [MDL-28170, carbobezoxy-valinyl-phenylalaninal] (Cbz-Val-Phe-aldehyde), for which the “attenuation of RV dysfunction resulting from acute RV pressure overload (RVPO)” value in data set [1] (90 min RVPO, 30 min recovery, versus vehicle) is on record as “more than 50%”. Besides, in data set [1] (pig, in vivo), the independent hemodynamic effects result is “no independent hemodynamic effects”. In addition, the “preload-adjusted external work of the RV free wall” value in data set [1] (thirty min after release of pulmonary artery constriction, n=7, p<0.05 vs vehicle) is given as 69 % of baseline.
Take `CC(C)C[C@@H](C=O)NC(=O)[C@@H](NS(=O)(=O)c1ccc(F)cc1)C(C)C` [SJA6017, N-(4-fluorophenylsulfonyl)-L-valyl-L-leucinal]: in data set [2] (casein zymography), the “binding to the active site of m-calpain” value is listed as “reversibly bound”. In addition, in data set [2] (in vitro), the “inhibition of purified m-calpain” value is “strong inhibition”. Besides, in the data set on Molt-4 cells, the cell permeability result is “cell-permeable”. The “nuclear opacity and proteolysis of crystallins and alpha-spectrin” value in the data set on cultured rat lenses is on record as “reduced”.
As for `CCCC[C@@H](C=O)NC(=O)[C@H](CC(C)C)NC(=O)[C@H](CC(C)C)NC(C)=O` [calpain inhibitor-1] (Ac-Leu-Leu-[Nle]-aldehyde), the “cytoskeletal degradation and myocardial stunning” value with isolated rat hearts [3] is “attenuates”.
Take `CCCC[C@@H](C=O)NC(=O)[C@H](CC(C)C)NC(=O)OCc1ccccc1` [calpeptin]: in the data set with isolated rat hearts [4], the “TnI degradation and stunning” value is listed as “prevented”.
